Assay results published in ChEMBL document CHEMBL1133051, “Design and synthesis of a novel water soluble benzotetrazepinone” (Bioorg Med Chem Lett, 2000).

Tested on: MCF7
Experiment: Inhibitory concentration of compound against Mer+ breast tumor cell line MCF-7
Type: functional, cell-based
Details: Homo sapiens

Row | IC50 [µM] | SMILES
1 | 80 | CN1N=Nc2cc(C(=O)NCCN3CCOCC3)ccc2N(C)C1=O
2 | 800 | Cn1nnc2c(C(N)=O)ncn2c1=O [TEMOZOLOMIDE]
